Measured values from patent publication US10478404B2, “Materials, methods and devices for altering cell reactivity” (The Arizona Board of Regents on behalf of The University of …, priority 2014, dated 2019).

How the values were obtained:
platelets [1] = experiment: Hyper-shear exposure via platelet hammer device (PAS); format: cell-based, Human; conditions: 0.95% (v/v) DMSO pre-incubation; shear 100-1000 dynes/cm^2; FIG. 1B
Method: To further extend the above observation, platelets were pre-incubated with DMSO, at 0.95% (v/v), and then subjected to much higher levels of shear via a platelet hammer device, i.e. shear from 100-1000 dynes/cm^2. […] These levels correlate with the levels experienced in VADs and other high shear MCS devices.

platelets [2] = experiment: Scanning electron microscopy (SEM) of fixed DMSO-treated platelets; format: cell-based, Human; conditions: 5% and 10% DMSO
Method: (§1) Light transmission aggregometry (LTA) was performed to detect platelet desensitization using arachidonic acid, ADP, collagen, epinephrine, and ristocetin. Platelets were fixed and visualized at the varying DMSO treatments under scanning electron microscopy (SEM). […] DMSO has no effect on ristocetin-induced platelet aggregation.

[3] = system: gel-filtered platelets (GFP); experiment: Platelet activity state (PAS) assay of gel-filtered platelets under constant shear (cone-plate viscometer); format: cell-based, Human
Method: (§2) Human blood was collected from healthy volunteers in citrated buffers. Platelet rich plasma (PRP) and gel-filtered platelets (GFP) were isolated as previously described (Girdhar, et al., PLOS One, 7(3):e32463 (2012)) then treated with percentages of DMSO (v/v) ranging from 0.95%-60%. Platelet activity state (PAS) assay of GFP sheared at 30 dyne/cm^2 via con-plate viscometer and light transmission aggregometry (LTA) of PRP and GFP induced by ADP and collagen were performed.
In some experiments, varying percentages of DMSO were added to platelets, which were then subjected to defined sheer.

[4] = system: Platelet rich plasma (PRP); experiment: Light transmission aggregometry (LTA) with chemical agonists; format: cell-based, Human
Method: as §2, §1
To examine whether membrane modulation impacted biochemical as well as shear-mediated platelet activation the following study was performed. Platelet rich plasma (PRP) was pre-incubated with varying concentrations of DMSO. PRP was then exposed to a variety of chemical agonists (ADP, Col, EpPi, Arac. Acid, or none (control)).

GFP = experiment: Shear-mediated platelet activation with actin stabilizing/depolymerization drugs; format: cell-based, human; conditions: 70 dyn shearing force; compared to control cells with 0.1% DMSO; FIG. 2B
Method: Platelets were collected from human volunteers and PRP obtained as described above. Platelet-activation was determined (biochemical vs. shear mediated) was determined within the context of modulation of intracellular microfilament action, as measured by the effect on actin was determined. Actin is a globular multi-functional protein that forms microfilaments. It is found in almost all eukaryotic cells where it may be present at concentrations of over 100 μM. An actin protein's mass is roughly 42-kDa and it is the monomeric subunit of two types of filaments in cells: microfilaments, one of the three major components of the cytoskeleton, and thin filaments, part of the contractile apparatus in muscle cells. It can be present as either a free monomer called G-actin (globular) or as part of a linear polymer microfilament called F-actin (filamentous).
Whole blood aggregation was determined in the presence of ADP in cells treated with cytochalasin B (FIG. 2A). Cystochalasin B inhibits both the rate of actin polymerization and the interaction of actin filaments in solution. Maclean-Fletcher, Cell, 20(2):329-41 (1980). The effect of actin stabilizing/depolymerization drugs (Jasplakinolide and cystochalasin B) in shear-mediated platelet activation was measured in GFP. […]

platelets [5] = experiment: Shear-induced platelet activation (PAS) with membrane modulators; format: cell-based, human
Method: Platelets were obtained as previously described and the effect of […] on biochemical or shear-induced (70 dyn shearing force) platelet activation was determined. Membrane modulation was effected using hydrophobic molecules such as Docosahexaenoic acid (DHA) and Eicosapentaenoic acid (EPA), the structures of which are shown below.
Shear-mediated platelet activation was also measured in the presence of DHA, EPA and wild salmon oil (FIG. 4B-C).
Shear-mediated and biochemical mediated platelet activation was also measured in the presence of the amphipathic molecules, cholesterol and lecithin. Cholesterol adds firmness and integrity to the plasma membrane and prevents it from becoming overly fluid i.e., cholesterol helps the membrane maintain its fluidity. In the studies including cholesterol, cholesterol-treated cells were compared with cells treated with 0.1% DMSO.

## C[S+](C)[O-] [DMSO, dimethysulfoxide]
Platelets [1]
  tolerance of hyper shear: able to tolerate much higher levels of sheer
Platelets [2]
  filopodia (SEM of platelets): significant reduction
[3]; 5% DMSO, 5 min of 30 dyne/cm^2
  protection of platelets from shear-induced activation in comparison to control (PAS assay): up to 90%
[3]; 10 min of 30 dyne/cm^2
  DMSO percentage giving the same level of protection at longer shear exposure: 10%
[3]; DMSO range tested 0.95%-60%
  most effective DMSO percentage in protecting platelets from activation by constant shear stress and aggregation by chemical agonists: 5 % (v/v)
[3]; shear 30-70 dynes/cm^2, FIG. 1A
  DMSO concentration with best protective effect: 1-5%
[4]
  ristocetin-induced platelet aggregation: no effect
[4]; 0.95% to 10% DMSO
  collagen-induced PRP aggregation: limited effect
  epinephrine-induced PRP aggregation: limited effect
[4]; 5% DMSO
  arachidonic acid-induced aggregation: inhibition
[4]; 5% DMSO-pretreated platelets
  maximal aggregation (LTA): lower maximal aggregation
  platelet aggregation rate (LTA): slower platelet aggregation rate
[4]; 10% DMSO
  ADP-induced aggregation: inhibition
[4]; PRP pre-incubated with varying DMSO, ADP, Col, Epi, Arac. Acid, inhibitory peak at higher DMSO concentrations than for shear, FIG. 1C
  agonist-mediated platelet activation: reduction of agonist-mediated activation

## C/C1=C\[C@H](C)C[C@H](C)OC(=O)C[C@H](c2ccc(O)cc2)NC(=O)[C@@H](Cc2c(Br)[nH]c3ccccc23)N(C)C(=O)[C@H](C)NC(=O)[C@@H](C)C1 [Jasplakinolide]
GFP
  shear-mediated platelet activation over time: less activation over time

## CC(C)CCC[C@@H](C)[C@H]1CC[C@H]2[C@@H]3CC=C4C[C@@H](O)CC[C@]4(C)[C@H]3CC[C@]12C [cholesterol]
Platelets [5]; 20 μM and 200 μM cholesterol, 30 dyn and 70 dyn, compared with 0.1% DMSO, FIG. 4D-E
  shear-induced platelet activation: reduces shear-induced platelet activation

## lecithin
Platelets [5]; Example 4 data
  platelet sensitivity to shear stress: increase platelet sensitivity to shear stress
Platelets [5]; lecithin 25 ug/ml, 30 dyn, GFP, compared to controls, FIG. 4G
  shear-induced platelet activation as measured by PAS: increases
